Measurements from US20060069108A1, “Use of (R)-penciclovir triphosphate for the manufacture of a medicament for the treatment of viral diseases” (priority 1995, published 2006).

How the values were obtained:
HBV DNA polymerases = HBV DNA polymerases (Hepatitis B virus genotype D subtype ayw, UniProt P03156); experiment: Inhibition of HBV DNA polymerases; format: biochemical; settings: activity compared with the (S)-enantiomer
[1] = target: HIV-1 reverse transcriptase (Human immunodeficiency virus type 1 group M subtype B, UniProt P04585); experiment: Inhibition of HIV-1 reverse transcriptase; format: biochemical, human immunodeficiency virus type 1 (HIV-1)

HBV DNA polymerases, sequence (P03156 whole entry): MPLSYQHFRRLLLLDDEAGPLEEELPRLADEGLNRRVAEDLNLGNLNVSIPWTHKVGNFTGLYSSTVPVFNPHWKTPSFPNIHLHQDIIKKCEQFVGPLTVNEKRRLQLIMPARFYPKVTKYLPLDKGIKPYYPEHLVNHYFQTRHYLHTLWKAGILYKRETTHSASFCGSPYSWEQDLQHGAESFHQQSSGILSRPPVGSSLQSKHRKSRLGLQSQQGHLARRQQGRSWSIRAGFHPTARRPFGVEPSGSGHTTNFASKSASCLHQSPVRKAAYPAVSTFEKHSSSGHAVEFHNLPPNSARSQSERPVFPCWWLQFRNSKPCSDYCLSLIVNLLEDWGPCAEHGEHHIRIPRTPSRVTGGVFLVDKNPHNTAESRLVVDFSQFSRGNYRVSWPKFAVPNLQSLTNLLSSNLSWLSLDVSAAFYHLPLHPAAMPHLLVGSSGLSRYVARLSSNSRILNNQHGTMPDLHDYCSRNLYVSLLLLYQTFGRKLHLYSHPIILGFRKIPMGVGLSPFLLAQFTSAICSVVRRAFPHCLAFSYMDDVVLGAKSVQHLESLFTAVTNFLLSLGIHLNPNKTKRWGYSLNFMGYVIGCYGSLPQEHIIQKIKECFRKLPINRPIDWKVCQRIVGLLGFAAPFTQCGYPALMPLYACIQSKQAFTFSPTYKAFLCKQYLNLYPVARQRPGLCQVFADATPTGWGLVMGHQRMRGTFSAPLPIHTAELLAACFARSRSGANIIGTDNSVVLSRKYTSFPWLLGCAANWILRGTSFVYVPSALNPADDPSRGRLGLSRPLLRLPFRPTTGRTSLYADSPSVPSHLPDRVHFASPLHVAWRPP

Nc1nc2c(ncn2CC[C@H](CO)COP(=O)(O)OP(=O)(O)OP(=O)(O)O)c(=O)[nH]1 (single isomer, unassigned) [(R)-enantiomer of PCV-TP]
inhibition of HBV DNA polymerases (HBV DNA polymerases): more active than the (S)-enantiomer
inhibition of HIV-1 reverse transcriptase ([1]; activity compared with the (S)-enantiomer): more active than the (S)-enantiomer

penciclovir triphosphate [triphosphate derivative of penciclovir, reference compound]
inhibition of RNA-directed DNA polymerase (reverse transcriptase) activity of HIV-1 [1]: inhibits
